Test results reported in ChEMBL document CHEMBL4804284.
Active and inactive are the calls of the source. The rule behind the calls is not given here.

Columns and labels:
[1] = target: Uncharacterized serine/threonine-protein kinase SBK3 (Homo sapiens) (UniProt P0C264); experiment: Inhibition of DNA-tagged human SgK110 assessed as percent of control at 50000 nM by qPCR analysis relative to control; parameters: scale not given: the % may be the effect or the level left
[2] = target: Tyrosine-protein kinase Fer (Homo sapiens) (UniProt P16591); experiment: Inhibition of DNA-tagged human FER assessed as percent of control at 50000 nM by qPCR analysis relative to control; parameters: scale not given: the % may be the effect or the level left
[3] = target: Non-receptor tyrosine-protein kinase TNK1 (Homo sapiens) (UniProt Q13470); experiment: Inhibition of DNA-tagged human TNK1 assessed as percent of control at 50000 nM by qPCR analysis relative to control; parameters: scale not given: the % may be the effect or the level left
[4] = target: Mitogen-activated protein kinase kinase kinase 19 (Homo sapiens) (UniProt Q56UN5); experiment: Inhibition of DNA-tagged human YSK4 assessed as percent of control at 50000 nM by qPCR analysis relative to control; parameters: scale not given: the % may be the effect or the level left
[5] = target: Serine/threonine-protein kinase 32B (Homo sapiens) (UniProt Q9NY57); experiment: Inhibition of DNA-tagged human YANK2 assessed as percent of control at 50000 nM by qPCR analysis relative to control; parameters: scale not given: the % may be the effect or the level left
[6] = target: Mitogen-activated protein kinase 13 (Homo sapiens) (UniProt O15264); experiment: Inhibition of DNA-tagged human p38-delta assessed as percent of control at 50000 nM by qPCR analysis relative to control; parameters: scale not given: the % may be the effect or the level left
[7] = target: Serine/threonine-protein kinase 38-like (Homo sapiens) (UniProt Q9Y2H1); experiment: Inhibition of DNA-tagged human NDR2 assessed as percent of control at 50000 nM by qPCR analysis relative to control; parameters: scale not given: the % may be the effect or the level left
[8] = target: Ribosomal protein S6 kinase alpha-2 (Homo sapiens) (UniProt Q15349); experiment: Inhibition of DNA-tagged human C-terminal RSK3 kinase domain 2 assessed as percent of control at 50000 nM by qPCR analysis relative to control; parameters: scale not given: the % may be the effect or the level left
MV4-11 = experiment: Cytotoxicity against human MV4-11 cells expressing FLT3-ITD at 0.1-100 uM assessed as decrease in cell viability relative to control; format: functional, cell-based
[9] = target: Serine/threonine-protein kinase SBK1 (Homo sapiens) (UniProt Q52WX2); experiment: Inhibition of DNA-tagged human SBK1 assessed as percent of control at 50000 nM by qPCR analysis relative to control; parameters: scale not given: the % may be the effect or the level left
[10] = target: Ribosomal protein S6 kinase alpha-4 (Homo sapiens) (UniProt O75676); experiment: Inhibition of DNA-tagged human C-terminal RPS6KA4 kinase domain 2 assessed as percent of control at 50000 nM by qPCR analysis relative to control; parameters: scale not given: the % may be the effect or the level left
[11] = target: Myosin-IIIa (Homo sapiens) (UniProt Q8NEV4); experiment: Inhibition of DNA-tagged human MYO3A assessed as percent of control at 50000 nM by qPCR analysis relative to control; parameters: scale not given: the % may be the effect or the level left
[12] = target: Membrane-associated tyrosine- and threonine-specific cdc2-inhibitory kinase (Homo sapiens) (UniProt Q99640); experiment: Inhibition of DNA-tagged human PKMYT1 assessed as percent of control at 50000 nM by qPCR analysis relative to control; parameters: scale not given: the % may be the effect or the level left
[13] = target: Serine/threonine-protein kinase pim-2 (Homo sapiens) (UniProt Q9P1W9); experiment: Inhibition of DNA-tagged human PIM2 assessed as percent of control at 50000 nM by qPCR analysis relative to control; parameters: scale not given: the % may be the effect or the level left
[14] = target: Tyrosine-protein kinase Lyn (Homo sapiens) (UniProt P07948); experiment: Inhibition of DNA-tagged human LYN assessed as percent of control at 50000 nM by qPCR analysis relative to control; parameters: scale not given: the % may be the effect or the level left
[15] = target: Activin receptor type-1-like (Homo sapiens) (UniProt P37023); experiment: Inhibition of DNA-tagged human ACVRL1 assessed as percent of control at 50000 nM by qPCR analysis relative to control; parameters: scale not given: the % may be the effect or the level left
[16] = target: Myosin-IIIb (Homo sapiens) (UniProt Q8WXR4); experiment: Inhibition of DNA-tagged human MYO3B assessed as percent of control at 50000 nM by qPCR analysis relative to control; parameters: scale not given: the % may be the effect or the level left
[17] = target: Fibroblast growth factor receptor 4 (Homo sapiens) (UniProt P22455); experiment: Inhibition of DNA-tagged human FGFR4 assessed as percent of control at 50000 nM by qPCR analysis relative to control; parameters: scale not given: the % may be the effect or the level left
[18] = target: Dual specificity mitogen-activated protein kinase kinase 2 (Homo sapiens) (UniProt P36507); experiment: Inhibition of DNA-tagged human MEK2 assessed as percent of control at 50000 nM by qPCR analysis relative to control; parameters: scale not given: the % may be the effect or the level left
[19] = target: Atypical kinase COQ8B, mitochondrial (Homo sapiens) (UniProt Q96D53); experiment: Inhibition of DNA-tagged human ADCK4 assessed as percent of control at 50000 nM by qPCR analysis relative to control; parameters: scale not given: the % may be the effect or the level left
[20] = target: Platelet-derived growth factor receptor beta (Homo sapiens) (UniProt P09619); experiment: Inhibition of DNA-tagged human PDGFRB assessed as percent of control at 50000 nM by qPCR analysis relative to control; parameters: scale not given: the % may be the effect or the level left
[21] = tested on: Epidermal growth factor receptor (Homo sapiens), P00533 [UNDEFINED MUTATION]; experiment: Inhibition of DNA-tagged human EGFR L747-E749del/A750P double mutant assessed as percent of control at 50000 nM by qPCR analysis relative to control; parameters: scale not given: the % may be the effect or the level left
[22] = target: Casein kinase I isoform alpha-like (Homo sapiens) (UniProt Q8N752); experiment: Inhibition of DNA-tagged human CSNK1A1L assessed as percent of control at 50000 nM by qPCR analysis relative to control; parameters: scale not given: the % may be the effect or the level left
[23] = target: Serine/threonine-protein kinase PRP4 homolog (Homo sapiens) (UniProt Q13523); experiment: Inhibition of DNA-tagged human PRP4 assessed as percent of control at 50000 nM by qPCR analysis relative to control; parameters: scale not given: the % may be the effect or the level left
[24] = target: Dual specificity protein kinase TTK (Homo sapiens) (UniProt P33981); experiment: Inhibition of DNA-tagged human TTK assessed as percent of control at 50000 nM by qPCR analysis relative to control; parameters: scale not given: the % may be the effect or the level left
[25] = target: Tyrosine-protein kinase TXK (Homo sapiens) (UniProt P42681); experiment: Inhibition of DNA-tagged human TXK assessed as percent of control at 50000 nM by qPCR analysis relative to control; parameters: scale not given: the % may be the effect or the level left
[26] = target: Phosphatidylinositol 4,5-bisphosphate 3-kinase catalytic subunit gamma isoform (Homo sapiens) (UniProt P48736); experiment: Inhibition of DNA-tagged human PIK3CG assessed as percent of control at 50000 nM by qPCR analysis relative to control; parameters: scale not given: the % may be the effect or the level left
[27] = target: Serine/threonine-protein kinase Nek3 (Homo sapiens) (UniProt P51956); experiment: Inhibition of DNA-tagged human NEK3 assessed as percent of control at 50000 nM by qPCR analysis relative to control; parameters: scale not given: the % may be the effect or the level left
[28] = target: CDK4/Cyclin D3 (Homo sapiens) (UniProt P11802+P30281); experiment: Inhibition of DNA-tagged human CDK4/cyclin D3 assessed as percent of control at 50000 nM by qPCR analysis relative to control; format: protein-complex assay; parameters: scale not given: the % may be the effect or the level left
[29] = target: Aurora kinase C (Homo sapiens) (UniProt Q9UQB9); experiment: Inhibition of DNA-tagged human AURKC assessed as percent of control at 50000 nM by qPCR analysis relative to control; parameters: scale not given: the % may be the effect or the level left

Sequence of Dual specificity mitogen-activated protein kinase kinase 2 (Homo sapiens) (P36507 whole entry): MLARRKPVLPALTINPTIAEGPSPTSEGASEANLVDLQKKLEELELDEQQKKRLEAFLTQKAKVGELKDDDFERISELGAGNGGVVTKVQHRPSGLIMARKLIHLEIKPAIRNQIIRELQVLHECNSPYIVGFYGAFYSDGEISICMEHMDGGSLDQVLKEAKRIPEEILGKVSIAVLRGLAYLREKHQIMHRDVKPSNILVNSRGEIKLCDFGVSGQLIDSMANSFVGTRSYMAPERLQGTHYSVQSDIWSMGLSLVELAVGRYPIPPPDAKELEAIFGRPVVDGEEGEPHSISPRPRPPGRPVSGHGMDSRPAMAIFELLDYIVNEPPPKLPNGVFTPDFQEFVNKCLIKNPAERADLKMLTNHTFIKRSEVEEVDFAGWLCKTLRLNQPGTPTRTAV
Sequence of Myosin-IIIb (Homo sapiens) (Q8WXR4 whole entry): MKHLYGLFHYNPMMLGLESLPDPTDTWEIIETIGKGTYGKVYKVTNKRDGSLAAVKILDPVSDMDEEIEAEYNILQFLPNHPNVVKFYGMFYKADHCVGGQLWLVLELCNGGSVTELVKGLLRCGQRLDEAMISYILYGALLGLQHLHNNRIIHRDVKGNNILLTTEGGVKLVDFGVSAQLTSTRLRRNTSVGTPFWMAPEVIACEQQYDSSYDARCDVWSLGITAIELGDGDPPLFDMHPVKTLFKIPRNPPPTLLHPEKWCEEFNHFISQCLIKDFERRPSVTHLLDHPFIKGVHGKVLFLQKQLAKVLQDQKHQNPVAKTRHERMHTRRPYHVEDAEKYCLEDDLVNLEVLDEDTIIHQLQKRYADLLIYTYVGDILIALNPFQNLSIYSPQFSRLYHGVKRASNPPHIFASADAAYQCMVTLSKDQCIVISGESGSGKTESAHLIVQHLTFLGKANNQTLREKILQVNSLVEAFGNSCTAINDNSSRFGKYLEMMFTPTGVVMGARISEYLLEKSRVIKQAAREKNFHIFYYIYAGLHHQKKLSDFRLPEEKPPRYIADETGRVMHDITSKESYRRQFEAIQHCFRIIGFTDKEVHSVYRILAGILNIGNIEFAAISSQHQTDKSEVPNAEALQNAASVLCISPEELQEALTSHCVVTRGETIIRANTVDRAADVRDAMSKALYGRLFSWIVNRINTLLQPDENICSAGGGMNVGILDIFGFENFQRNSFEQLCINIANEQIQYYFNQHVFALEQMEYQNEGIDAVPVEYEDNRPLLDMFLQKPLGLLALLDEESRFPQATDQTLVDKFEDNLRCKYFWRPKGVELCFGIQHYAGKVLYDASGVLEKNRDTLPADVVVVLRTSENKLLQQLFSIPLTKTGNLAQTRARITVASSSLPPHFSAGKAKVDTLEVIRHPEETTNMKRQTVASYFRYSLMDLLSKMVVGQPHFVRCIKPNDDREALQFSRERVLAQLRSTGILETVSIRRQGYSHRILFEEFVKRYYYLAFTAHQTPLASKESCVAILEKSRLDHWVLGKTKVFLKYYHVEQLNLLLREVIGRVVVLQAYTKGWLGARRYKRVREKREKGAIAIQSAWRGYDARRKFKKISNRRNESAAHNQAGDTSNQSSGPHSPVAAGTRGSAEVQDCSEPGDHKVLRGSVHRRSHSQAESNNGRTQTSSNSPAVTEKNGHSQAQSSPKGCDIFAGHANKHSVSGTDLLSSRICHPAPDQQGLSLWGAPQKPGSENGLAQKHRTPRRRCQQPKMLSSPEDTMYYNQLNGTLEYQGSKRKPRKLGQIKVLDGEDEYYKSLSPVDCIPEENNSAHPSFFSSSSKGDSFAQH
Sequence of Serine/threonine-protein kinase PRP4 homolog (Homo sapiens) (Q13523 whole entry): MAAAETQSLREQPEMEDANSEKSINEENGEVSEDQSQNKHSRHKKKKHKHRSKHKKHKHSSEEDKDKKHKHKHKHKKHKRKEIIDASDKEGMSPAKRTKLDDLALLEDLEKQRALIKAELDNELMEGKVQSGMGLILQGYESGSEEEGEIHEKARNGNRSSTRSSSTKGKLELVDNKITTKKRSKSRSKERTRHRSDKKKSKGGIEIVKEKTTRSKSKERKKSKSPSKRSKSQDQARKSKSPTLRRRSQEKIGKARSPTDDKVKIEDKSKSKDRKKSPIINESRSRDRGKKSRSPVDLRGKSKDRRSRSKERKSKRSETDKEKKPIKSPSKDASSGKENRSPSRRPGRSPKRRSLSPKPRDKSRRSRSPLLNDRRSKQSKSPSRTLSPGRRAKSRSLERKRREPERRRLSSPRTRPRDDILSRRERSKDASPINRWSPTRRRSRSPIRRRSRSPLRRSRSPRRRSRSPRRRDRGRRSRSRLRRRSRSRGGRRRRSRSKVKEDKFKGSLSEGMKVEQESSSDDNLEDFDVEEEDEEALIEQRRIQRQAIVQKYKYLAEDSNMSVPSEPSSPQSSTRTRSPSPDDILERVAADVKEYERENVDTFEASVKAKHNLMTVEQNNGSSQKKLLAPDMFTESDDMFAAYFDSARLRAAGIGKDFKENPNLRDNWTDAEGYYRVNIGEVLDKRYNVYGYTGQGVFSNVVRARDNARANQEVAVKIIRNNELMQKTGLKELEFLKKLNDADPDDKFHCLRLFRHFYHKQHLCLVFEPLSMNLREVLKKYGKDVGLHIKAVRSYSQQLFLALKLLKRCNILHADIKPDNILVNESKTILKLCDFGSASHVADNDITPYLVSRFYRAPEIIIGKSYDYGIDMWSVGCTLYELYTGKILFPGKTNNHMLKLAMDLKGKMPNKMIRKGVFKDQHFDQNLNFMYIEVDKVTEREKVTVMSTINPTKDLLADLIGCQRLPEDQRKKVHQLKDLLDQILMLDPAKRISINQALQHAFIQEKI
Sequence of Tyrosine-protein kinase Lyn (Homo sapiens) (P07948 2-512 limits assumed): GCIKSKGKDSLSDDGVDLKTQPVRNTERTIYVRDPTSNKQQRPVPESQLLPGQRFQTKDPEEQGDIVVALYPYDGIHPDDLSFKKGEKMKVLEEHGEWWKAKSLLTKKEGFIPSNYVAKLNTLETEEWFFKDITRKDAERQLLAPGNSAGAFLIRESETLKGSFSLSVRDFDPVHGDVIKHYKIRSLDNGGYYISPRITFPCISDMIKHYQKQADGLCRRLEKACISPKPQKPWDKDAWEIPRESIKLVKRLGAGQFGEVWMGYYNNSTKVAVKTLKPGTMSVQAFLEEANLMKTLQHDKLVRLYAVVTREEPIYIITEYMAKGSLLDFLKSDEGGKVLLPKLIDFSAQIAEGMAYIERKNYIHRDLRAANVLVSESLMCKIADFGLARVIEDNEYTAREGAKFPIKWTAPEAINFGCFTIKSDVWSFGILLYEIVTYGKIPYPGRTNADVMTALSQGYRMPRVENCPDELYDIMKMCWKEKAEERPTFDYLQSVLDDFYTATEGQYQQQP
Sequence of Mitogen-activated protein kinase kinase kinase 19 (Homo sapiens) (Q56UN5 whole entry): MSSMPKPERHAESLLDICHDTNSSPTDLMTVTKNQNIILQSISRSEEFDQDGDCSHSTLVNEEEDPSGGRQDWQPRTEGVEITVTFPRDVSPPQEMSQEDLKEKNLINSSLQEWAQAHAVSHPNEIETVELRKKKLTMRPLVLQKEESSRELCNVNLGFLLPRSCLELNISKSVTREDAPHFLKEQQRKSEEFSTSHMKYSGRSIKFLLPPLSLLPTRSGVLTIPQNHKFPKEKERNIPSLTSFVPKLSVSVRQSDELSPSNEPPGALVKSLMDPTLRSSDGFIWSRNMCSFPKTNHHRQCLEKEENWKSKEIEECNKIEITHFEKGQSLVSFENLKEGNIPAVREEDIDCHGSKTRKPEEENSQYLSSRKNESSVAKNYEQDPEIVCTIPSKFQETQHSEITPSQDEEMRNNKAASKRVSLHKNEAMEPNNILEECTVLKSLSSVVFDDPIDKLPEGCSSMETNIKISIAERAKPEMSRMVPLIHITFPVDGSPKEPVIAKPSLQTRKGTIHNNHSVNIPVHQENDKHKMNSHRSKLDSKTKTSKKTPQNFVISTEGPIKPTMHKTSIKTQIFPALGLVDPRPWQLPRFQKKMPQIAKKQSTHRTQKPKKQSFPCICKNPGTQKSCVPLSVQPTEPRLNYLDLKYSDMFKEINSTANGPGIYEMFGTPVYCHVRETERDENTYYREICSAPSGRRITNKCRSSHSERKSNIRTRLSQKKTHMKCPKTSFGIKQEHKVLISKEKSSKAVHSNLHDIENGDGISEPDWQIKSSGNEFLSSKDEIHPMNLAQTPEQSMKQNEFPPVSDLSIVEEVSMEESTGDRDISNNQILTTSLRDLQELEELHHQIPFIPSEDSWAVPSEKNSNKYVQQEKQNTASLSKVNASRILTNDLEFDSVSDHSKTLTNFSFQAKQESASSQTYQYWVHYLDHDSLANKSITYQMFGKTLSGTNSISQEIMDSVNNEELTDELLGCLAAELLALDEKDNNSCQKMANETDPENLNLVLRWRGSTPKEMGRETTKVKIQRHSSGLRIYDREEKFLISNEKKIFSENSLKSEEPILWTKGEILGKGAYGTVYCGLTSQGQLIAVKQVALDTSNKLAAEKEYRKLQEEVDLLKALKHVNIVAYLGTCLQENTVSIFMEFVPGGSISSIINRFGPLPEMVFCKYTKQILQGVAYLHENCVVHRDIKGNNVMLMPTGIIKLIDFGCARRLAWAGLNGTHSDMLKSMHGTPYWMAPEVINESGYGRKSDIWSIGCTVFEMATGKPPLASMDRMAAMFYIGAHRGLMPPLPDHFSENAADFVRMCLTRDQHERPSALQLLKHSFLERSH
Sequence of Activin receptor type-1-like (Homo sapiens) (P37023 whole entry): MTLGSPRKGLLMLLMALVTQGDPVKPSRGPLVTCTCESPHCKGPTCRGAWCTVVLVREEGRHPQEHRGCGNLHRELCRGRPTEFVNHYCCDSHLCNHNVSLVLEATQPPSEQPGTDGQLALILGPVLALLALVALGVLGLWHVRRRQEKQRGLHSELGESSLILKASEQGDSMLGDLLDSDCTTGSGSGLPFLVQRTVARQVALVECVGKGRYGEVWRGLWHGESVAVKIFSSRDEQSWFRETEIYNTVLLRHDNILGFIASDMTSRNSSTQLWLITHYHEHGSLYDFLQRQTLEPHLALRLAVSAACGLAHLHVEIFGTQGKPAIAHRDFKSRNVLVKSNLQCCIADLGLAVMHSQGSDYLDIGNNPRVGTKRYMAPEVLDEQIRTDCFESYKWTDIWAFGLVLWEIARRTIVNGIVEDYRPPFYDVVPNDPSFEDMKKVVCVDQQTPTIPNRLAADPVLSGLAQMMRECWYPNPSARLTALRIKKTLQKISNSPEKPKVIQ

`CN1C(=O)/C(=C2/C(=O)Nc3ccccc32)c2ccccc21` showed an Activity [1] of 100%, an Activity [2] of 88% and an Activity [3] of 98%. The Activity [4] was 91%, the Activity [5] was 100% and the Activity [6] was 100%. The Activity [7] was 100%, the Activity [8] was 92% and the Activity (MV4-11) was “Active”. It also gave an Activity [9] of 100%, an Activity [10] of 89% and an Activity [11] of 100%. It also gave an Activity [12] of 100%, an Activity [13] of 100% and an Activity [14] of 100%. The Activity [15] was 100%, the Activity [16] was 100% and the Activity [17] was 100%. The Activity [18] was 89%, the Activity [19] was 78% and the Activity [20] was 100%. It also gave an Activity [21] of 83%, an Activity [22] of 97% and an Activity [23] of 89%. For the same compound, the Activity [24] was 88%, the Activity [25] was 100% and the Activity [26] was 100%. The Activity [27] was 92%, the Activity [28] was 100% and the Activity [29] was 94%.
